Measurements from patent US20100004253A1, “BIOMARKERS OF TARGET MODULATION, EFFICACY, DIAGNOSIS AND/OR PROGNOSIS FOR RAF INHIBITORS” (Novartis AG, priority 2006, published 2010).

Columns and labels:
MALME-3M = settings: mutant B-Raf cell line
COLO205 = settings: COLO205, mutant B-Raf cell line
[1] = system: MEK target phosphorylation and signaling molecules downstream from Raf (BIM, Cyclin D1, p27Kip, pAKT); settings: preclinical models
SKMEL2 = settings: SKMEL2, N-Ras cell line
SKMEL28 = settings: SKMEL28, mutant B-Raf cell line
HT29 xenograft = assay: Mutant B-Raf xenograft model; assay type: in vivo
SKMEL31 = settings: SKMEL31, mutant B-Raf cell line
G361 = settings: G361, mutant B-Raf cell line
HCT116 xenograft = assay: K-Ras driven xenograft model; assay type: in vivo
Description: […]. […] […].

A2058 = settings: A2058, mutant B-Raf cell line
A375M xenograft = assay: Mutant B-Raf xenograft model; assay type: in vivo
[2] = system: A375M melanoma xenograft tumors; assay: mRNA microarray profiling of A375M xenograft tumors; assay type: in vivo, mice; settings: 100 mg/kg orally every other day; 783 probesets; Table IX
MEXF276 xenograft = assay: Mutant B-Raf xenograft model; assay type: in vivo
SW620 = settings: SW620, K-Ras cell line

For `Cn1c(Nc2ccc(C(F)(F)F)cc2)nc2cc(Oc3ccnc(-c4ncc(C(F)(F)F)[nH]4)c3)ccc21` [CHIR-265, {1-Methyl-5-[2-(5-trifluoromethyl-1H-imidazol-2-yl)-pyridin-4-yloxy]-1H benzoimidazol-2-yl}-(4-trifluoromethyl-phenyl)-amine], the “inhibition of the Raf pathway” value (MALME-3M) was “inhibition of the Raf pathway”, the “inhibition of the Raf pathway” value (COLO205) was “inhibition of the Raf pathway” and the “inhibition of MEK target phosphorylation and signaling molecules downstream from Raf in the MAPK pathway” value [1] was “dose and time dependent inhibition”. The “inhibition of the Raf pathway” value (SKMEL2) was “inhibition of the Raf pathway”, the “inhibition of the Raf pathway” value (SKMEL28) was “inhibition of the Raf pathway” and the effect on tumor (HT29 xenograft) was “tumor regression”. The “inhibition of the Raf pathway” value (SKMEL31) was “inhibition of the Raf pathway”, the “inhibition of the Raf pathway” value (G361) was “inhibition of the Raf pathway” and the effect on tumor (HCT116 xenograft) was “tumor growth inhibition”. The “inhibition of the Raf pathway” value (A2058) was “inhibition of the Raf pathway”, the effect on tumor (A375M xenograft) was “tumor regression” and the “number of genes significantly differential, alternate analysis method (six queries, p<0.005)” value [2] was 609 genes. The effect on tumor (MEXF276 xenograft) was “tumor regression” and the “inhibition of the Raf pathway” value (SW620) was “inhibition of the Raf pathway”.
